Where a SMILES comes first, the peptide text is derived from it. Bridges are numbered along the chain shown (N, C = ends). [ ]: non-standard residue; d: D form. The star is where a group is joined. ξ: configuration not given here. Trp(1-CH2COOH) = N[C@@H](Cc1cn(CC(=O)O)c2ccccc12)C(=O)O; Phe(3-CF3) = N[C@@H](Cc1cccc(C(F)(F)F)c1)C(=O)O; Phe(4-COOH) = N[C@@H](Cc1ccc(C(=O)O)cc1)C(=O)O; Bip = N[C@@H](Cc1ccc(-c2ccccc2)cc1)C(=O)O; Phe(3-Me) = Cc1cccc(C[C@H](N)C(=O)O)c1; NH(CH2)12COOH = O=C(O)CCCCCCCCCCCCN*; Val(3-OH) = CC(C)(O)[C@H](N)C(=O)O; Cha = N[C@@H](CC1CCCCC1)C(=O)O; Cit = NC(=O)NCCC[C@H](N)C(=O)O; ξY = NC(Cc1ccc(O)cc1)C(=O)O; Carboxymethyl = O=C(O)C*; NMeA = CN[C@@H](C)C(=O)O; Aun = NCCCCCCCCCCC(=O)O; Dab = NCC[C@H](N)C(=O)O; AEEA = NCCOCCOCC(=O)O
Biological target: T1, PD-1/PD-L1 interaction (PE-labeled human PD-L1-Ig binding to Jurkat cell line over-expressing human PD-1) (Homo sapiens, UniProt Q15116)
T1 construct: expressed in transfected cells; host or cells: Jurkat
T1 sequence (Q15116 25-288): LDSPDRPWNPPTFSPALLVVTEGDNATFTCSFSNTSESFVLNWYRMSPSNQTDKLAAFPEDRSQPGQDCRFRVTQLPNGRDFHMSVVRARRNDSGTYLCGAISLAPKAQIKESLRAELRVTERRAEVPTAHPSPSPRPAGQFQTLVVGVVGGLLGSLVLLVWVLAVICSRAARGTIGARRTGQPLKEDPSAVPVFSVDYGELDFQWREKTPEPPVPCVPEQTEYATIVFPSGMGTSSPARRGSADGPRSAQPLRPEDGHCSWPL
Experiment: Jurkat-PD-1 Cell Binding High-Content Screening Assay (CBA)
Settings: Jurkat-hPD-1 cells, PE-labeled PD-L1-Ig 20 nM final; read-out: Jurkat HPD1 PDL1 IC50
Summary of the method: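 Binding of 20 nM (final) PE-tagged PD-L1-Ig to compound-pretreated Jurkat-hPD-1 cells was measured by high-content imaging after 1 h. Pretreatment ran 2 h at 37 °C in DMEM with 10% fetal calf serum.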

Row | IC50 | SMILES
1 | 43.7 nM | CC(C)C[C@@H]1NC(=O)[C@H](Cc2c[nH]c3ccccc23)NC(=O)[C@H](CC(=O)O)NC(=O)[C@H](Cc2ccc(C(=O)O)cc2)NC(=O)[C@H](Cc2ccc(OCC(=O)O)cc2)NC(=O)CSC[C@@H](C(=O)NCCOCCOCC(=O)NCCCCCCCCCCC(=O)O)NC(=O)[C@H](CCC(=O)O)NC(=O)[C@H](C(C)(C)O)NC(=O)[C@H](CC2CCCCC2)NC(=O)[C@H](CCN)NC(=O)[C@@H](CC(C)C)NC(=O)[C@H](C)N(C)C(=O)[C@H](C(C)C)NC(=O)[C@H](Cc2ccc(-c3ccccc3)cc2)NC1=O [Example 1114] ({CH2CO}-Y(Carboxymethyl)[Phe(4-COOH)]DWL[Bip]V[NMeA][dL][Dab][Cha][Val(3-OH)]EC[AEEA][Aun]-OH; thioether N-14)
2 | 13.6 nM | CC(C)C[C@@H]1NC(=O)[C@H](Cc2c[nH]c3ccccc23)NC(=O)[C@H](CC(=O)O)NC(=O)[C@H](Cc2ccc(C(=O)O)cc2)NC(=O)[C@H](Cc2ccc(OCC(=O)O)cc2)NC(=O)CSC[C@@H](C(=O)NCCOCCOCC(=O)NCCCCCCCCCCC(=O)O)NC(=O)[C@H](CCN)NC(=O)[C@H](C(C)(C)O)NC(=O)[C@H](CC2CCCCC2)NC(=O)[C@H](CCN)NC(=O)[C@@H](CC(C)C)NC(=O)[C@H](C)N(C)C(=O)[C@H](C(C)C)NC(=O)[C@H](Cc2ccc(-c3ccccc3)cc2)NC1=O [Example 1120] ({CH2CO}-Y(Carboxymethyl)[Phe(4-COOH)]DWL[Bip]V[NMeA][dL][Dab][Cha][Val(3-OH)][Dab]C[AEEA][Aun]-OH; thioether N-14)
3 | 8.1 nM | CC(C)C[C@@H]1NC(=O)[C@H](Cc2c[nH]c3ccccc23)NC(=O)[C@H](CC(=O)O)NC(=O)[C@H](Cc2ccc(C(=O)O)cc2)NC(=O)[C@H](Cc2ccc(OCC(=O)O)cc2)NC(=O)CSC[C@@H](C(=O)NCCOCCOCC(=O)NCCCCCCCCCCC(=O)O)NC(=O)[C@H](Cc2cnc[nH]2)NC(=O)[C@H](C(C)(C)O)NC(=O)[C@H](CC2CCCCC2)NC(=O)[C@H](CCN)NC(=O)[C@@H](CC(C)C)NC(=O)[C@H](C)N(C)C(=O)[C@H](C(C)C)NC(=O)[C@H](Cc2ccc(-c3ccccc3)cc2)NC1=O [Example 1121] ({CH2CO}-Y(Carboxymethyl)[Phe(4-COOH)]DWL[Bip]V[NMeA][dL][Dab][Cha][Val(3-OH)]HC[AEEA][Aun]-OH; thioether N-14)
4 | 9.3 nM | CC(C)C[C@@H]1NC(=O)[C@H](Cc2c[nH]c3ccccc23)NC(=O)[C@H](CC(=O)O)NC(=O)[C@H](Cc2ccc(C(=O)O)cc2)NC(=O)[C@H](Cc2ccc(OCC(=O)O)cc2)NC(=O)CSC[C@@H](C(=O)N[C@@H](CCN)C(=O)NCCOCCOCC(=O)NCCCCCCCCCCC(=O)O)NC(=O)[C@H](CCC(=O)O)NC(=O)[C@H](C(C)(C)O)NC(=O)[C@H](CC2CCCCC2)NC(=O)[C@H](CCN)NC(=O)[C@@H](CC(C)C)NC(=O)[C@H](C)N(C)C(=O)[C@H](C(C)C)NC(=O)[C@H](Cc2ccc(-c3ccccc3)cc2)NC1=O [Example 1123] ({CH2CO}-Y(Carboxymethyl)[Phe(4-COOH)]DWL[Bip]V[NMeA][dL][Dab][Cha][Val(3-OH)]EC[Dab][AEEA][Aun]-OH; thioether N-14)
5 | 9.9 nM | CC(C)C[C@@H]1NC(=O)[C@H](Cc2c[nH]c3ccccc23)NC(=O)[C@H](CC(=O)O)NC(=O)[C@H](Cc2ccc(C(=O)O)cc2)NC(=O)[C@H](Cc2ccc(OCC(=O)O)cc2)NC(=O)CSC[C@@H](C(=O)N[C@@H](CCN)C(=O)NCCOCCOCC(=O)NCCCCCCCCCCC(=O)O)NC(=O)[C@H](CCC(N)=O)NC(=O)[C@H](C(C)(C)O)NC(=O)[C@H](CC2CCCCC2)NC(=O)[C@H](CCN)NC(=O)[C@@H](CC(C)C)NC(=O)[C@H](C)N(C)C(=O)[C@H](C(C)C)NC(=O)[C@H](Cc2ccc(-c3ccccc3)cc2)NC1=O [Example 1125] ({CH2CO}-Y(Carboxymethyl)[Phe(4-COOH)]DWL[Bip]V[NMeA][dL][Dab][Cha][Val(3-OH)]QC[Dab][AEEA][Aun]-OH; thioether N-14)
6 | 3.8 nM | CC(C)C[C@@H]1NC(=O)[C@H](Cc2c[nH]c3ccccc23)NC(=O)[C@H](CC(=O)O)NC(=O)[C@H](Cc2ccc(C(=O)O)cc2)NC(=O)[C@H](Cc2ccc(OCC(=O)O)cc2)NC(=O)CSC[C@@H](C(=O)N[C@@H](CCN)C(=O)NCCOCCOCC(=O)NCCCCCCCCCCC(=O)O)NC(=O)[C@H](CCN)NC(=O)[C@H](C(C)(C)O)NC(=O)[C@H](CC2CCCCC2)NC(=O)[C@H](CCN)NC(=O)[C@@H](CC(C)C)NC(=O)[C@H](C)N(C)C(=O)[C@H](C(C)C)NC(=O)[C@H](Cc2ccc(-c3ccccc3)cc2)NC1=O [Example 1127] ({CH2CO}-Y(Carboxymethyl)[Phe(4-COOH)]DWL[Bip]V[NMeA][dL][Dab][Cha][Val(3-OH)][Dab]C[Dab][AEEA][Aun]-OH; thioether N-14)

More lines, now with the values behind:

Row | SMILES | IC50
7 | CC(C)C[C@@H]1NC(=O)[C@H](Cc2c[nH]c3ccccc23)NC(=O)[C@H](CC(=O)O)NC(=O)[C@H](Cc2ccc(C(=O)O)cc2)NC(=O)[C@H](Cc2ccc(OCC(=O)O)cc2)NC(=O)CSC[C@@H](C(=O)N[C@@H](CCN)C(=O)NCCOCCOCC(=O)NCCCCCCCCCCC(=O)O)NC(=O)[C@H](CCCNC(N)=O)NC(=O)[C@H](C(C)(C)O)NC(=O)[C@H](CC2CCCCC2)NC(=O)[C@H](CCN)NC(=O)[C@@H](CC(C)C)NC(=O)[C@H](C)N(C)C(=O)[C@H](C(C)C)NC(=O)[C@H](Cc2ccc(-c3ccccc3)cc2)NC1=O [Example 1122] ({CH2CO}-Y(Carboxymethyl)[Phe(4-COOH)]DWL[Bip]V[NMeA][dL][Dab][Cha][Val(3-OH)][Cit]C[Dab][AEEA][Aun]-OH; thioether N-14) | 3.8 nM
8 | CC(C)C[C@@H]1NC(=O)[C@H](Cc2c[nH]c3ccccc23)NC(=O)[C@H](CC(=O)O)NC(=O)[C@H](Cc2ccc(C(=O)O)cc2)NC(=O)[C@H](Cc2ccc(OCC(=O)O)cc2)NC(=O)CSC[C@@H](C(=O)N[C@@H](CCN)C(=O)NCCOCCOCC(=O)NCCCCCCCCCCC(=O)O)NC(=O)[C@H](CCC(N)=O)NC(=O)[C@H](C(C)C)NC(=O)[C@H](CC2CCCCC2)NC(=O)[C@H](CCN)NC(=O)[C@@H](CC(C)C)NC(=O)[C@H](C)N(C)C(=O)[C@H](C(C)C)NC(=O)[C@H](Cc2ccc(-c3ccccc3)cc2)NC1=O [Example 1126] ({CH2CO}-Y(Carboxymethyl)[Phe(4-COOH)]DWL[Bip]V[NMeA][dL][Dab][Cha]VQC[Dab][AEEA][Aun]-OH; thioether N-14) | 3.4 nM
9 | CC(C)C[C@@H]1NC(=O)[C@H](Cc2c[nH]c3ccccc23)NC(=O)[C@H](CC(=O)O)NC(=O)[C@H](Cc2ccc(C(=O)O)cc2)NC(=O)[C@H](Cc2ccc(OCC(=O)O)cc2)NC(=O)CSC[C@@H](C(=O)N[C@@H](CCN)C(=O)NCCOCCOCC(=O)NCCCCCCCCCCC(=O)O)NC(=O)[C@H](Cc2cnc[nH]2)NC(=O)[C@H](C(C)(C)O)NC(=O)[C@H](CC2CCCCC2)NC(=O)[C@H](CCN)NC(=O)[C@@H](CC(C)C)NC(=O)[C@H](C)N(C)C(=O)[C@H](C(C)C)NC(=O)[C@H](Cc2ccc(-c3ccccc3)cc2)NC1=O [Example 1129] ({CH2CO}-Y(Carboxymethyl)[Phe(4-COOH)]DWL[Bip]V[NMeA][dL][Dab][Cha][Val(3-OH)]HC[Dab][AEEA][Aun]-OH; thioether N-14) | 6.7 nM
10 | CC(C)C[C@@H]1NC(=O)[C@H](Cc2c[nH]c3ccccc23)NC(=O)[C@H](CC(=O)O)NC(=O)[C@H](Cc2ccc(C(=O)O)cc2)NC(=O)[C@H](Cc2ccc(OCC(=O)O)cc2)NC(=O)CSC[C@@H](C(=O)N[C@@H](CCN)C(=O)NCCOCCOCC(=O)NCCCCCCCCCCC(=O)O)NC(=O)[C@H](Cc2cnc[nH]2)NC(=O)[C@H](C(C)C)NC(=O)[C@H](CC2CCCCC2)NC(=O)[C@H](CCN)NC(=O)[C@@H](CC(C)C)NC(=O)[C@H](C)N(C)C(=O)[C@H](C(C)C)NC(=O)[C@H](Cc2ccc(-c3ccccc3)cc2)NC1=O [Example 1130] ({CH2CO}-Y(Carboxymethyl)[Phe(4-COOH)]DWL[Bip]V[NMeA][dL][Dab][Cha]VHC[Dab][AEEA][Aun]-OH; thioether N-14) | 12.3 nM
11 | Cc1cccc(C[C@@H]2NC(=O)[C@H](CC(=O)O)NC(=O)[C@H](Cc3cn(CC(=O)O)c4ccccc34)NC(=O)[C@H](CCN)NC(=O)CSC[C@@H](C(=O)N[C@@H](CCN)C(=O)NCCCCCCCCCCC(=O)O)NC(=O)[C@H]([C@@H](C)O)NC(=O)[C@H](C(C)C)NC(=O)[C@H](CC3CCCCC3)NC(=O)[C@H](CCN)NC(=O)[C@@H](CC(C)C)NC(=O)[C@H](C)N(C)C(=O)[C@H](Cc3ccc(OCC(=O)O)cc3)NC(=O)[C@H](Cc3ccc(-c4ccccc4)cc3)NC(=O)C(Cc3ccc(OCC(=O)O)cc3)NC2=O)c1 (stereo partly drawn) [Example 1133] ({CH2CO}-[Dab][Trp(1-CH2COOH)]D[Phe(3-Me)][ξY](Carboxymethyl)[Bip]Y(Carboxymethyl)[NMeA][dL][Dab][Cha]VTC[Dab][Aun]-OH; thioether N-14) | 29.3 nM
12 | COC[C@@H]1NC(=O)CSC[C@@H](C(=O)N[C@@H](CCN)C(=O)NCCCCCCCCCCCCC(=O)O)NC(=O)[C@H](CC(=O)O)NC(=O)[C@H](C(C)(C)O)NC(=O)[C@H](CC2CCCCC2)NC(=O)[C@H](CCN)NC(=O)[C@@H](CC(C)C)NC(=O)[C@H](C)N(C)C(=O)[C@H](CCC(N)=O)NC(=O)[C@H](Cc2ccc(-c3ccccc3)cc2)NC(=O)[C@H](Cc2ccc(C(=O)O)cc2)NC(=O)[C@H](Cc2cccc(C(F)(F)F)c2)NC(=O)[C@H](CC(=O)O)NC(=O)[C@H](Cc2ccc(OCC(=O)O)cc2)NC1=O [Example 1134] ({CH2CO}-S(Me)Y(Carboxymethyl)D[Phe(3-CF3)][Phe(4-COOH)][Bip]Q[NMeA][dL][Dab][Cha][Val(3-OH)]DC[Dab]-{NH(CH2)12COOH}; thioether N-14) | 15.3 nM

— US20260070945A1, “MACROCYCLIC IMMUNOMODULATORS” (Bristol-Myers Squibb Company, priority 2022, published 2026)
